37 compounds from patent publication US9266834B2, “1, 4-disubstituted 3-cyano-pyridone derivatives and their use as positive allosteric modulators of MGLUR2-receptors” (JANSSEN PHARMACEUTICALS, INC., priority 2006, dated 2016) can be followed below.

The melting point is the temperature of the solid-liquid transition.

The target of data set [1] is T1, human mGluR2 receptor (Homo sapiens, UniProt Q14416).
T1 construct: expressed in transfected cells; host or cells: CHO cells (membrane preparation)
T1 sequence (Q14416 19-872): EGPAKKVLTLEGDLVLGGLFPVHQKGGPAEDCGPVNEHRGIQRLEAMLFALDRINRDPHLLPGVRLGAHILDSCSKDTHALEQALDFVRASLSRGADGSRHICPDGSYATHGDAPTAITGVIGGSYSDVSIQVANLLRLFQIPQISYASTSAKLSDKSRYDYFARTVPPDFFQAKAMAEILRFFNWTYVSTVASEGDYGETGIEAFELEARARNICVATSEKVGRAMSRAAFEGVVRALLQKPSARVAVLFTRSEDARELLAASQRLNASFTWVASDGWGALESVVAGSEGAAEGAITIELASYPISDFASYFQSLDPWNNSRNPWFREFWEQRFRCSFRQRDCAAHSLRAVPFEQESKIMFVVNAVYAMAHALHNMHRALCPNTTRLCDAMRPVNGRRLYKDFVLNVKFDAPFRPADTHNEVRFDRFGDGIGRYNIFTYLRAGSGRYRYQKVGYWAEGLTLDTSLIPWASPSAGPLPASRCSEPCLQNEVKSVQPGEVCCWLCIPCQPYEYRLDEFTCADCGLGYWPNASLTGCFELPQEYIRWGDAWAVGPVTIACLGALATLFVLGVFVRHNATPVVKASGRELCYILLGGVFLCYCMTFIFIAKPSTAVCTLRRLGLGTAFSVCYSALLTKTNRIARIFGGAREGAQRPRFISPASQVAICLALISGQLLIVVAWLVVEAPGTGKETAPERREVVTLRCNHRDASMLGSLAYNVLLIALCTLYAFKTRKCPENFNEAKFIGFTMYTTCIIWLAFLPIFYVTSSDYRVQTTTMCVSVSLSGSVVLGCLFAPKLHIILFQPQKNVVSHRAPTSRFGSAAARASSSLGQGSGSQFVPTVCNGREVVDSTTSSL
As to the kind of experiment: [35S]GTPγS binding assay (GTPγS-PAM): positive allosteric modulation in presence of glutamate at EC25, membranes from transfected CHO cells. The format is biochemical. The following applies: in presence of mGluR2 agonist glutamate at predetermined EC25 concentration, averages of duplicate values of 11-concentration response curves, read-out: GTPgS - hR2 PAM pEC50 (converted). The gist of the method:
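Potentiation was read as filter-retained [35S]GTPγS (0.1 nM final, 30 min, 30° C.) after a 30 min, 30° C. preincubation of human mGluR2 CHO membranes (15 μg/well) with EC25 glutamate and 11 modulator concentrations spanning 0.3 nM-50 μM. The buffer was 50 mM HEPES pH 7.4, NaCl, MgCl2, 50 μM GDP and saponin. Cold 10 μM GTP defined nonspecific binding; data were fitted by a four-parameter logistic.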
On the technique in general: Binding of GTPγS marks nucleotide exchange on a G protein.

As for `CC(C)CCn1ccc(N(C)C2CCN(Cc3cccc(C(F)(F)F)c3)CC2)c(C#N)c1=O` [3-006], the melting point was determined as 131 °C. Besides, the EC50 in data set [1] is 2510 nM.

For the compound `CC(C)CCn1ccc(OC2CCN(Cc3ccccc3)CC2)c(C#N)c1=O` [3-007], the melting point is 208 °C. The EC50 in data set [1] is 6310 nM.

Turning to `CC(C)CCn1ccc(OCC2CCN(Cc3cccc(C(F)(F)F)c3)CC2)c(C#N)c1=O` [3-009], the melting point worked out at 117 °C. Besides, the EC50 in data set [1] is 158 nM.

`N#Cc1c(NC2CCN(Cc3ccc(OC(F)(F)F)c(Cl)c3)CC2)ccn(CC2CC2)c1=O` [3-010] came in with a melting point of 187 °C. The EC50 in data set [1] is 1580 nM.

Consider `CN(c1ccn(Cc2ccc(OC(F)(F)F)cc2)c(=O)c1C#N)C1CCN(Cc2ccccc2)CC1` [3-013], for which the melting point came out at 211 °C. In addition, in data set [1], the EC50 is 3980 nM.

For the compound `CCCCn1ccc(N2CCC(c3ccnc(C)c3)CC2)c(C#N)c1=O` [4-003], the melting point was determined as 132 °C. Moreover, in data set [1], the EC50 was 3980 nM.

`CCCCn1ccc(N2CCC(Oc3cccnc3)CC2)c(C#N)c1=O` [4-004] displayed a melting point of 188 °C. The EC50 in data set [1] was 3160 nM.

With `CC(C)CCn1ccc(N2CCC(C(=O)c3ccccc3)CC2)c(C#N)c1=O` [4-012], the melting point worked out at 296 °C. For the same compound, the EC50 in data set [1] is 398 nM.

With `CC(C)CCn1ccc(N2CCC(c3cccc(C(F)(F)F)c3)CC2)c(C#N)c1=O` [4-016], the melting point worked out at 112 °C. Moreover, the EC50 in data set [1] is 50.1 nM.

As to `CC(C)CCn1ccc(N2CCC(CCOc3ccc(F)cc3)CC2)c(C#N)c1=O` [4-019], the melting point is 100 °C. In addition, in data set [1], the EC50 is 79.4 nM.

Regarding `CC(C)CCn1ccc(N2CCC(N(C)Cc3ccc(F)cc3)CC2)c(C#N)c1=O` [4-027], the melting point was 113 °C. In data set [1], the EC50 was 1260 nM.

Regarding `CC(C)CCn1ccc(N2CCC(N(C)Cc3ccc(C(F)(F)F)cc3)CC2)c(C#N)c1=O` [4-029], the melting point came to 91 °C. Besides, in data set [1], the EC50 is 126 nM.

In turn, `CC(C)CCn1ccc(N2CCC(N(C)c3cccc(C(F)(F)F)c3)CC2)c(C#N)c1=O` [4-031] came in with a melting point of 141 °C. For the same compound, the EC50 in data set [1] is 63.1 nM.

Compound `CC(C)CCn1ccc(N2CCC(N3CCc4ccccc4C3)CC2)c(C#N)c1=O` [4-034] had a melting point of 253 °C. The EC50 in data set [1] was 3160 nM.

As to `CC(C)CCn1ccc(N2CCC(n3ccc4cc(F)ccc43)CC2)c(C#N)c1=O` [4-037], the melting point was 78 °C. For the same compound, in data set [1], the EC50 was 126 nM.

In turn, `CC(C)CCn1ccc(N2CCC(c3nc4ccccc4o3)CC2)c(C#N)c1=O` [4-038] returned a melting point of 214 °C. For the same compound, the EC50 in data set [1] was 398 nM.

`CC(C)CCn1ccc(N2CCC(c3coc4cc(F)ccc34)CC2)c(C#N)c1=O` [4-039] gave a melting point of 123 °C. Besides, the EC50 in data set [1] was 39.8 nM.

Compound `CC(C)CCn1ccc(N2CCC(c3noc(CC(C)(C)C)n3)CC2)c(C#N)c1=O` [4-040] had a melting point of 113 °C. Further, the EC50 in data set [1] is 398 nM.

Compound `CC(C)CCn1ccc(N2CCC(Nc3ccccc3)C(C)C2)c(C#N)c1=O` (centres unmarked) [4-043] displayed a melting point of 138 °C. Further, the EC50 in data set [1] was 501 nM.

The compound `CN(Cc1ccccc1)C1CCN(c2ccn(Cc3ccc(OC(F)(F)F)cc3)c(=O)c2C#N)CC1` [4-049] had a melting point of 138 °C. Besides, the EC50 in data set [1] is 200 nM.

`CN(Cc1cccc(F)c1)C1CCN(c2ccn(Cc3ccc(F)cc3)c(=O)c2C#N)CC1` [4-057] gave a melting point of 242 °C. In data set [1], the EC50 was 1000 nM.

The compound `N#Cc1c(N2CCC(N(Cc3cccc(F)c3)C3CC3)CC2)ccn(Cc2ccc(F)cc2)c1=O` [4-059] yielded a melting point of 157 °C. The EC50 in data set [1] is 251 nM.

In turn, `N#Cc1c(N2CCC(N(Cc3cccc(C(F)(F)F)c3)C3CC3)CC2)ccn(Cc2ccc(F)cc2)c1=O` [4-060] gave a melting point of 96 °C. In addition, the EC50 in data set [1] is 50.1 nM.

`N#Cc1c(N2CCC(N3Cc4ccc(F)cc4C3)CC2)ccn(Cc2ccc(F)cc2)c1=O` [4-061] came in with a melting point of 175 °C. In addition, in data set [1], the EC50 was 1580 nM.

Regarding `N#Cc1c(N2CCC(c3ccccc3)CC2)ccn(Cc2ccc(OC(F)(F)F)cc2)c1=O` [4-062], the melting point was determined as 139 °C. In data set [1], the EC50 is 39.8 nM.

`CN(Cc1ccccc1)C1CCN(c2ccn(CCOc3ccccc3)c(=O)c2C#N)CC1` [4-064] registered a melting point of 159 °C. Moreover, the EC50 in data set [1] was 126 nM.

`CCCCn1ccc(-c2ccc3c(c2)nc(C)n3Cc2ccccn2)c(C#N)c1=O` [5-002] showed a melting point of 164.7 °C. In addition, the EC50 in data set [1] is 6310 nM.

The compound `CC(C)CCn1ccc(N2CCC(N(C)Cc3cccc(F)c3)C2)c(C#N)c1=O` (centres unmarked) [5-006] returned a melting point of 100 °C. The EC50 in data set [1] was 3980 nM.

For the compound `CC(C)CCn1ccc(N2CC(OCc3ccc(OC(F)(F)F)cc3)C2)c(C#N)c1=O` [5-008], the melting point is 102 °C. The EC50 in data set [1] was 251 nM.

Turning to `CC(C)CCn1ccc(-c2ccc3c(ccn3Cc3ccncc3)c2)c(C#N)c1=O` [5-020], the melting point came to 232 °C. For the same compound, in data set [1], the EC50 is 25.1 nM.

For the compound `CC(C)CCn1ccc(N2CCCc3ccccc32)c(C#N)c1=O` [5-031], the melting point is 134 °C. For the same compound, the EC50 in data set [1] is 6310 nM.

Turning to `COc1ccc2c(c1)C1CCCN(c3ccn(CCC(C)C)c(=O)c3C#N)C1CC2` (centres unmarked) [5-035], the melting point was found to be 169 °C. Moreover, the EC50 in data set [1] was 1580 nM.

Consider `CC(C)CCn1ccc(N2CCC3Oc4ccccc4OC3C2)c(C#N)c1=O` (centres unmarked) [5-037], for which the melting point stood at 217 °C. The EC50 in data set [1] was 398 nM.

`CC(C)CCn1ccc(N2CCc3c([nH]c4ccccc34)C2)c(C#N)c1=O` [5-039] gave a melting point of 276 °C. Besides, the EC50 in data set [1] is 79.4 nM.

Compound `CC(C)CCn1ccc(N2CCc3c(n(C)c4ccc(F)cc34)C2)c(C#N)c1=O` [5-040] registered a melting point of 111 °C. In addition, in data set [1], the EC50 is 316 nM.

In the case of `CC(C)CCn1ccc(N2CCc3c(oc4ccccc34)C2)c(C#N)c1=O` [5-041], the melting point is 130 °C. Also, in data set [1], the EC50 was 50.1 nM.

Regarding `N#Cc1c(-c2ccc3[nH]ccc3c2)ccn(Cc2ccc(OC(F)(F)F)cc2)c1=O` [5-051], the melting point is 166 °C. For the same compound, the EC50 in data set [1] was 251 nM.
